# “Also recorded” adds a separate entry of the source.
# Columns and labels:
# FLT3-WT = system: FLT3-WT; design: method as in Shankar et al (2007); details: previously reported; ref Shankar et al (2007); read-out: IC50 for inhibition of FLT3-WT; cited from earlier work
# MV4-11 cells = test: Cellular proliferation assay (MTS), MV4-11; format: cell-based; details: Homo sapiens, AML-FLT3-ITD (homozygous), 72 h, mean±s.d. of three experiments
# Method: (§1) MOLM-13 cells were purchased from the Deutsche Sammlung von Microorganismen und Zellkulturen GmbH (Braunschweig, Germany). RS4;11, MV4-11, U937, and K562 cell lines were obtained from the American Type Culture Collection (ATCC, Manassas, VA, USA). […] HEK293T- and FLT3-transfected HEK293T cells were cultured in DMEM (Invitrogen) medium with 10% FBS.
# (§2) Proliferation assays were performed by seeding 10 000 cells per well in a 96-well culture plate. […] Cell viability was quantitated using the MTS method (Promega) according to the manufacturer's recommended protocol. The results were determined by measuring absorbance at 490 nm using a plate reader (Victor2; Perkin-Elmer).
# K562 cells = test: Cellular proliferation assay (MTS), K562; format: cell-based; details: Homo sapiens, CML-Bcr-Abl FLT3-negative, 72 h, mean±s.d. of three experiments
# Method: as §1, §2
# RS4;11 cells = test: Cellular proliferation assay (MTS), RS4;11; format: cell-based; details: Homo sapiens, RS4-11, 72 h, read-out: Proliferation GI50, RS4;11
# Method: as §1, §2
# [1] = system: MOLM-13 xenograft tumours; design: method as in Shankar et al, 2007; details: ref Shankar et al, 2007; cited from earlier work
# U937 cells = test: Cellular proliferation assay (MTS), U937; format: cell-based; details: Homo sapiens, U-937, AML-FLT3-negative, 72 h, mean±s.d. of three experiments
# Method: as §1, §2
# MOLM-13 cells = test: Cellular proliferation assay (MTS), MOLM-13; format: cell-based; details: Homo sapiens, AML-FLT3-ITD (heterozygous), 72 h, mean±s.d. of three experiments
# Method: as §1, §2
smiles,measurement,setting,value
Cc1ccc(F)c(NC(=O)Nc2ccc(-c3cccc4[nH]nc(N)c34)cc2)c1 [ABT-869],IC50,FLT3-WT,4 nM
same,GI50,MV4-11 cells,82 ± 17 nM
same,GI50,K562 cells,> 20000 nM
same,GI50,RS4;11 cells,9200 ± 2700 nM
same,Effect on MOLM-13 xenograft tumours,[1],unable to shrink the MOLM-13 xenograft tumours; also recorded: not able to produce regressions of tumours
same,GI50,U937 cells,> 18000 nM
same,GI50,MOLM-13 cells,38 ± 14 nM

# Reference: article PMC3273346, “BPR1J-097, a novel FLT3 kinase inhibitor, exerts potent inhibitory activity against AML” (British Journal of Cancer, 2011)
